In US12121510B2 (Cedars-Sinai Medical Center, priority 2016, dated 2024):
Like-named read-outs stand apart in the source and are kept apart here.

Columns and labels:
CA-46 = experiment: Lymphoma cell growth IC50 (MTT); format: cell-based, human
Excerpt: (§1) Exemplary Embodiments are generally performed as follows, unless otherwise noted. Simvastatin is purchased from Ark Pharm, Inc. (Arlington Heights, IL). Cisplatin (CIS) is purchased from MedKoo Biosciences, Inc. (Chapel Hill, NC). Dihydroartemisinin is purchased from TCI America (Portland, OR). All other chemicals and reagents are purchased from standard sources such as Sigma-Aldrich and/or VWR and are of highest quality available. Puromycin dihydrochloride was purchased from Alfa Aesar (Tewksbury, MA). Deionized water ([…]) used for making solutions is obtained from Milli-Q Direct Ultrapure Water System from Millipore (Billerica, MA, USA). All intermediates are characterized by 1H NMR and mass analysis and the purity of compounds are analyzed by HPLC. 1H NMR data are collected on Bruker 400 MHz spectrometers using standard parameters; chemical shifts are reported in ppm (δ) in reference to residual non-deuterated solvent. ESI mass spectroscopy analysis is performed using a Thermo Fisher LTQ Orbitrap Elite system. IC50 is the half maximal inhibitory concentration and determined is determined by crystal violet assay unless otherwise noted.
(§2) The crystal violet assay is performed as follows, unless otherwise noted. Cell lines are supplemented with RPMI 1640 medium, 10% fetal bovine serum, 1% PenStrep, and placed in a humidified atmosphere containing 5% CO2 at 37° C. 5,000 cells/well renal cancer cells and 10,000 cells/well lymphoma cells are seeded in 96 well plates in 100 microliter medium/per well for 24 h. […] Renal cancer cells are fixed with 3.7% paraformaldehyde for 15 minutes and are stained with Crystal violet solution (0.5% in 25% methanol) for 30 minutes. After rinsing with water cell layers are dried and decolorized with Sorenson citrate with shaking for 20 minutes. Light absorption of the extracted supernatant is read at 595 nm. Lymphoma cell growth was evaluated using MTT and cells are incubated for 4 hours. 100 microliters of isopropanol is added, and the extracted supernatant fraction is read at absorption maximum of 595 nm.
(§3) Standard cell culture conditions typically are RPMI 1640 medium, 10% fetal bovine serum, 1% PenStrep, and are performed in a humidified atmosphere containing 5% CO2 at 37° C. Generally, 5,000 cells/well-10,000 cells/well are seeded in 96 well plates in 100 microliter medium/per well for 24 h, or as described in Example 16, unless otherwise noted. Certain cells require specialized media, growth factors, antibiotics, or culture condition adjustments, as will be apparent to a person of ordinary skill in the art.
as §2, with “Cell” for “The crystal violet assay is performed as follows, unless otherwise noted. Cell”, “cultured as follows. […]” for “supplemented with RPMI 1640 medium, 10% fetal bovine serum, 1% PenStrep, and placed in a humidified atmosphere containing 5% CO2 at 37° C.”, “is” for “was”

Namalwa = experiment: Lymphoma cell growth IC50 (MTT); format: cell-based, human
Excerpt: as §1, §2, §3
as §2, with “Cell” for “The crystal violet assay is performed as follows, unless otherwise noted. Cell”, “cultured as follows. […]” for “supplemented with RPMI 1640 medium, 10% fetal bovine serum, 1% PenStrep, and placed in a humidified atmosphere containing 5% CO2 at 37° C.”, “is” for “was”

Ramos = experiment: Lymphoma cell growth IC50 (MTT); format: cell-based, human
Excerpt: as §1, §2, §3
as §2, with “Cell” for “The crystal violet assay is performed as follows, unless otherwise noted. Cell”, “cultured as follows. […]” for “supplemented with RPMI 1640 medium, 10% fetal bovine serum, 1% PenStrep, and placed in a humidified atmosphere containing 5% CO2 at 37° C.”, “is” for “was”

Daudi = experiment: Lymphoma cell growth IC50 (MTT); format: cell-based, human
Excerpt: as §1, §2, §3
as §2, with “Cell” for “The crystal violet assay is performed as follows, unless otherwise noted. Cell”, “cultured as follows. […]” for “supplemented with RPMI 1640 medium, 10% fetal bovine serum, 1% PenStrep, and placed in a humidified atmosphere containing 5% CO2 at 37° C.”, “is” for “was”

Raji = experiment: Lymphoma cell growth IC50 (MTT); format: cell-based, human
Excerpt: as §1, §2, §3
as §2, with “Cell” for “The crystal violet assay is performed as follows, unless otherwise noted. Cell”, “cultured as follows. […]” for “supplemented with RPMI 1640 medium, 10% fetal bovine serum, 1% PenStrep, and placed in a humidified atmosphere containing 5% CO2 at 37° C.”, “is” for “was”

22Rv1 = experiment: Cancer cell growth IC50 (crystal violet); format: cell-based, human; settings: Example 15
Excerpt: as §1
(§4) The crystal violet assay is performed as follows, unless otherwise noted. Cell lines are supplemented with RPMI 1640 medium, 10% fetal bovine serum, 1% PenStrep, and placed in a humidified atmosphere containing 5% CO2 at 37° C. 5,000 cells/well renal cancer cells and 10,000 cells/well lymphoma cells are seeded in 96 well plates in 100 microliter medium/per well for 24 h. […] Renal cancer cells are fixed with 3.7% paraformaldehyde for 15 minutes and are stained with Crystal violet solution (0.5% in 25% methanol) for 30 minutes. After rinsing with water cell layers are dried and decolorized with Sorenson citrate with shaking for 20 minutes. Light absorption of the extracted supernatant is read at 595 nm. Lymphoma cell growth was evaluated using MTT and cells are incubated for 4 hours. 100 microliters of isopropanol is added, and the extracted supernatant fraction is read at absorption maximum of 595 nm. […]

MIAPaCa II = experiment: Cancer cell growth IC50 / sensitization (crystal violet); format: cell-based; settings: Example 15
Excerpt: as §1, §4

95D = experiment: Cell proliferation IC50, Crystal Violet assay; format: cell-based, human; settings: 95D (Met); 72 h; single agent; mean ± SEM
Excerpt: as §1
(§5) H446 is a SCLC cell line. […] Drugs tested and compared include CIS and DZ-CIS ester. Each drug is used as single agent.

H446 = experiment: Cell proliferation IC50, Crystal Violet assay; format: cell-based, human; settings: SCLC H446; 72 h; single agent; mean ± SEM
Excerpt: as §1, §5

YTMLC = experiment: Cell proliferation IC50, Crystal Violet assay; format: cell-based, human; settings: 72 h, single agent, mean ± SEM
Excerpt: as §1, §5

95C = experiment: Cell proliferation IC50, Crystal Violet assay; format: cell-based, human; settings: 95C (Non-Met); 72 h; single agent; mean ± SEM
Excerpt: as §1, §5

PC3 = experiment: Cancer cell growth IC50 (crystal violet); format: cell-based; settings: Example 15
Excerpt: as §1, §2, §3

C4-2 = experiment: Cancer cell growth IC50 (crystal violet); format: cell-based; settings: Example 15; C4-2
Excerpt: as §1, §2, §3

C4-2B = experiment: Cancer cell growth IC50 (crystal violet); format: cell-based; settings: Example 15
Excerpt: as §1, §2, §3

PC3M = experiment: Cancer cell growth IC50 (crystal violet); format: cell-based; settings: Example 15
Excerpt: as §1, §2, §3

H358 = experiment: Cancer cell growth IC50 (crystal violet); format: cell-based; settings: Example 15
Excerpt: as §1, §2, §3

CAOV-3 = experiment: Cancer cell growth IC50 (crystal violet); format: cell-based; settings: Example 15
Excerpt: as §1, §2, §3

ARCaP-M = experiment: Cancer cell growth IC50 (crystal violet); format: cell-based; settings: Example 15
Excerpt: as §1, §2, §3

LNCaP = experiment: Cancer cell growth IC50 (crystal violet); format: cell-based; settings: Example 15
Excerpt: as §1, §2, §3

[1] = test system: renal cancer and B-cell lymphoma cell lines; experiment: Growth IC50 in renal cancer and B-cell lymphoma panel; format: cell-based, human; settings: all cancer cell lines of Example 16; 72 h; read-out: IC50 across renal cancer and B-cell lymphoma cell lines
Description: as §2, with “Cell” for “The crystal violet assay is performed as follows, unless otherwise noted. Cell”, “cultured as follows. […]” for “supplemented with RPMI 1640 medium, 10% fetal bovine serum, 1% PenStrep, and placed in a humidified atmosphere containing 5% CO2 at 37° C.”, “is” for “was”

[2] = 72 hours, read-out: Half maximal inhibitory concentration (IC50)

N.N.[Cl][Pt][Cl] [CIS, cis-diamminedichloridoplatinum (II)]
IC50 (CA-46; CA-46, 72 hours, read-out: Half maximal inhibitory concentration (IC50)): > 64 µM
IC50 (CA-46; Example 15, CA46, read-out: IC50): > 64 µM
IC50 (Namalwa; [2]): > 64 µM
IC50 (Namalwa; Example 15, read-out: IC50): > 64 µM
IC50 (Ramos; [2]): > 64 µM
IC50 (Ramos; Example 15, read-out: IC50): > 64 µM
IC50 (Daudi; [2]): > 64 µM
IC50 (Daudi; Example 15, read-out: IC50): > 64 µM
IC50 (Raji; [2]): > 64 µM
IC50 (Raji; Example 15, read-out: IC50): > 64 µM
IC50 (22Rv1): > 64 µM
IC50 (MIAPaCa II): > 64 µM
IC50 (95D): > 100 µM
IC50 (H446): 107.3 ± 1 µM
IC50 (YTMLC): 16.2 ± 1 µM
IC50 (95C): 12.7 ± 1 µM
IC50 (PC3): 48.7 µM
IC50 (C4-2): > 64 µM
IC50 (C4-2B): > 64 µM
IC50 (PC3M): > 64 µM
IC50 (H358): > 64 µM
IC50 (CAOV-3): 13.4 µM
IC50 (ARCaP-M): > 64 µM
IC50 (LNCaP): > 64 µM
IC50 [1]: > 64 µM
